BindingDB's records for doi:10.1021/jm00147a033 (1985)

Experiments:
[1] = Compound was evaluated for reversible inhibition of hydrolysis acetylcholine by acetylcholinesterase and represented as KI(noncompetitive)
[2] = Compound was evaluated for reversible inhibition of hydrolysis acetylcholine by acetylcholinesterase and represented as KI(competitive)
[3] = Compound was evaluated for reversible inhibition of hydrolysis of acetylcholine by acetylcholinesterase and represented as KI(competitive)
[4] = Compound was evaluated for reversible inhibition of hydrolysis acetylcholine by acetylcholinesterase and represented as KI(competitive); remark: listed apart in the source

| SMILES | Ki [1] [mM] | Ki [4] [mM] | also measured |
| --- | --- | --- | --- |
| CC(C)(C)CCO [3,3-Dimethyl-butan-1-ol] | 19 |  |  |
| C[N+](C)(C)CCO [2-hydroxy-N,N,N-trimethylethanaminium] | 7.6 |  |  |
| CS(C)(I)CCO [(2-Hydroxy-ethyl)-dimethyl-sulfonium; iodide] | 13 |  |  |
| CC(=O)OCCS(C)(=O)=O [Acetic acid 2-methanesulfonyl-ethyl ester] |  |  | Ki [2]: 6.4 mM |
| CC(=O)CCC[N+](C)(C)[O-] [5-dimethylamino-2-pentanone-N-oxide] |  |  | Ki [3]: 14 mM |
| C[Si](C)(C)CCO [2-Trimethylsilanyl-ethanol] |  | 3.3 |  |
| CS(=O)(=O)CCO [2-Methanesulfonyl-ethanol] | 100 | 8.7 |  |
| C[S+](C)C [Trimethyl-sulfonium; iodide] | 7.2 | 2 |  |
